Test results from PubChem BioAssay AID1996.
In brackets after ≈: the same amount, converted by molar mass.

Conditions: buffer; pH 7.4; 200.0 µM

Row | solubility kinetic [µg/mL] | Structure (SMILES)
1 | 12.2 (≈ 38 µM) | CC(=O)c1ccc(OCCCOc2cccc3cccnc23)cc1
2 | 3.9 (≈ 11.4 µM) | O=C(CC1SC(=Nc2ccc(O)cc2)NC1=O)Nc1ccccc1 (stereo not drawn)
3 | > 32.6 | CCCCC#Cc1cncc(C(=O)NN)c1
4 | < 0.4 | COC(=O)c1cn(CC(=O)Nc2ccc(OC)cc2)c2ccccc12
5 | 20.1 (≈ 128 µM) | CO/N=C(\N)c1nonc1N
6 | 14.1 (≈ 40.1 µM) | Cc1ccc(NC(=O)CN(C)C(=O)c2ccc(Br)o2)cc1
7 | 40.9 (≈ 121 µM) | CCOc1ccc(/C=C2\SC(=S)N(CCC(=O)O)C2=O)cc1
8 | 1.2 (≈ 3.54 µM) | CCOc1ccc2c(c1)C(=O)C(=O)N2CC1COc2ccccc2O1 (stereo not drawn)
9 | 4.5 (≈ 12.2 µM) | COc1ccc2oc(C(=O)OCC(=O)NC(=O)c3ccccc3)c(C)c2c1
10 | 0.8 (≈ 2.78 µM) | O=C(Nc1ccc(C(F)(F)F)cn1)Nc1cccs1
11 | 33 (≈ 111 µM) | CCC1CCCCN1CC(=O)c1c(C)[nH]c2cc(C)ccc12 (stereo not drawn)
12 | 16.8 (≈ 59.3 µM) | CSc1ccccc1C(=O)Nc1ccc2c(c1)CCC2
13 | > 55.4 | Cc1c(OCC(F)(F)F)ccnc1CS(=O)c1nc2ccccc2[nH]1 (stereo not drawn)
14 | 29.7 (≈ 110 µM) | Nc1ncccc1OCc1ccc(Cl)c(Cl)c1
15 | 17.3 (≈ 59.8 µM) | Nc1ccccc1C(O)(Cc1ccccc1)c1ccccc1 (stereo not drawn)
16 | 4.7 (≈ 16.4 µM) | c1ccc2oc(-c3csc(N4CCOCC4)n3)cc2c1
17 | > 49.7 | COc1ccc(C(=O)C(C)OC(=O)CNC(=O)c2ccco2)cc1 (stereo not drawn)
18 | > 55.3 | Cc1c(NC(=O)COC(=O)c2cccn2C)c(=O)n(-c2ccccc2)n1C
19 | > 36 | CC(NC(=O)c1ccccc1N)c1ccccc1 (stereo not drawn)
20 | > 32.1 | Cc1ccc2nc(C3CCCCC3)[nH]c2c1
21 | > 36.3 | CN(C)Cc1nc2ccccc2c(=O)n1CC#N
22 | 34.4 (≈ 101 µM) | CCOc1ccccc1NS(=O)(=O)c1cn(C)c(=O)n(C)c1=O
23 | 6.9 (≈ 23.1 µM) | O=C(NCc1ccc(F)cc1)c1cnc(Cl)c(Cl)c1

Row | solubility kinetic [µg/mL] | Structure (SMILES)
24 | > 59.8 | Cn1c(N)c(C(=O)CSc2nnc(C3CC3)n2-c2ccccc2)c(=O)[nH]c1=O
25 | 7.3 (≈ 16.1 µM) | CC(=O)NCc1ccc(-c2csc(NC(=O)CCc3nc4ccccc4c(=O)[nH]3)n2)s1
26 | 13 (≈ 42.6 µM) | COC(=O)C1=C(C)NC(C)=C(C(=O)OC)C1c1ccc(C)o1
27 | 4.9 (≈ 14.7 µM) | O=C(COC(=O)/C=C/c1cccc(F)c1)NC(=O)NC1CCCC1
28 | > 48.7 | CN(C(=O)CSc1nncn1-c1ccccc1)c1ccccc1
29 | 3.8 (≈ 12.1 µM) | CC(NC(=O)Cc1ccsc1)c1ccc(Cl)cc1Cl (stereo not drawn)
30 | 3.7 (≈ 11.4 µM) | O=C(Cc1ccccc1)N1CCN(c2ccc([N+](=O)[O-])cc2)CC1
31 | > 34.3 | CN(C)C(=O)c1ccc(Cl)cc1[N+](=O)[O-]
32 | > 56.1 | CN1[C@@H](CC(=O)c2ccccc2)CCC[C@H]1C[C@H](O)c1ccccc1.Cl
33 | 10.5 (≈ 36.4 µM) | Cc1cccc(C(=O)NCC(=O)NC2CCC(C)CC2)c1 (stereo not drawn)
34 | 19.5 (≈ 56 µM) | Cc1ccc2oc(=O)cc(CN3CCN(Cc4ccccc4)CC3)c2c1
35 | 41 (≈ 135 µM) | CCOC(=O)c1ccc(N2C(=O)C3CCCN3C2=S)cc1 (stereo not drawn)
36 | 0.9 (≈ 3.43 µM) | Cc1cc(NC(=O)c2cc(C(C)(C)C)oc2C)no1
37 | 6.9 (≈ 22.2 µM) | O=C(Nc1cccc2c1C(=O)NC2=O)c1ccccc1[N+](=O)[O-]
38 | > 39.5 | CCC(=O)c1ccc(OC(=O)N2CCOCC2)cc1
39 | 20.8 (≈ 48 µM) | O=C(NC1=NCCS1)C1CCN(S(=O)(=O)c2cc([N+](=O)[O-])ccc2Cl)CC1
40 | 3.7 (≈ 10.7 µM) | Clc1ccccc1C(c1ccccc1)(c1ccccc1)n1ccnc1
41 | 7.2 (≈ 27.7 µM) | C#CCSc1nc(C)cc(C(=O)OCC)c1C#N
42 | 1.5 (≈ 4.36 µM) | O=C(Cc1ccc(Br)cc1)NC1CCCc2ccccc21 (stereo not drawn)
43 | 41.6 (≈ 132 µM) | CC(C)OCCCNC(=O)Cc1ccc(Br)cc1
44 | 15.5 (≈ 41.7 µM) | COc1cc(/C=C/C(=O)OCC(=O)Nc2ccc3c(c2)OCO3)ccc1O
45 | 5.7 (≈ 17.2 µM) | Cc1c(Cl)cccc1NC(=O)CC1Oc2ccccc2NC1=O (stereo not drawn)
46 | > 46.1 | CC(=O)Nc1ccc(S(=O)(=O)NC(C)(C#N)C2CC2)cc1 (stereo not drawn)

Row | solubility kinetic [µg/mL] | Structure (SMILES)
47 | < 0.3 | CCOC(=O)/C(C#N)=C/Nc1cc(C(C)(C)C)sc1C(C)=O
48 | 48.4 (≈ 149 µM) | O=S(=O)(NCCCN1CCOCC1)c1ccc(Cl)s1
49 | 43 (≈ 125 µM) | CN1CCN(CCCNC(=S)Nc2ccc(F)c(Cl)c2)CC1
50 | > 44.9 | O=C1CCC([N+](=O)[O-])C(c2ccccc2Br)N1 (stereo not drawn)
51 | > 46.3 | CCn1ccnc1CN1CCN(CCC(C)C)C(CCO)C1 (stereo not drawn)
52 | 3 (≈ 9.25 µM) | Cc1ccc(OC(C)C(=O)N2CC(=O)Nc3ccccc32)c(C)c1 (stereo not drawn)
53 | 41.6 (≈ 134 µM) | CN(C)C(=O)COc1ccc(C(=O)/C=C/c2cccnc2)cc1
54 | 37 (≈ 106 µM) | Cc1ccc(CNC(=O)CCCN2C(=S)NC(C)(C)CC2C)cc1 (stereo not drawn)
55 | 3 (≈ 9.11 µM) | COc1ccc2nc(NC(=O)c3ccccc3[N+](=O)[O-])sc2c1
56 | 8.3 (≈ 23.8 µM) | CCN1CCc2nc3ccccc3c(C(=O)Nc3ccc(F)cc3)c2C1
57 | 42.5 (≈ 131 µM) | COCCNC(=S)N1CCN(Cc2cccc(OC)c2)CC1
58 | > 46.6 | O=C(NCCS(=O)(=O)N1CCCCCC1)c1ccccc1
59 | > 29.7 | O=S(=O)(O)c1nc2ccccc2[nH]1
60 | > 41.8 | CCOc1ccccc1NC(=S)N1CCCCCC1
61 | 5.1 (≈ 14.5 µM) | Cc1cccn2c(=O)c(/C=C(\C#N)C(N)=O)c(N3CCCCCC3)nc12
62 | 45 (≈ 149 µM) | CCn1cc(CN2CCN(C)C(CCO)C2)c2ccccc21 (stereo not drawn)
63 | 27.2 (≈ 119 µM) | Cc1ncc(S(=O)(=O)C(C)(C)C)c(N)n1
64 | 4.1 (≈ 18.2 µM) | Cc1ccc(C(=O)CNc2ccccc2)cc1
65 | 10.7 (≈ 22.4 µM) | CCN(CC(=O)NC(C)C)C(=O)c1cc(S(=O)(=O)N2CCCCC2)ccc1N1CCCCC1
66 | > 59 | CC(=O)N1CCN(C(=O)c2ccc(C)c(S(=O)(=O)N3CCCCC3)c2)CC1
67 | > 47.2 | Cc1noc(C)c1NC(=O)N1CCN(Cc2ccccc2)CC1
68 | 38.1 (≈ 125 µM) | CCOc1ccc(C2(C)NC(=O)N(CCN(C)C)C2=O)cc1 (stereo not drawn)
69 | 31.4 (≈ 136 µM) | Cc1cc(C)c(C)c(OCCn2ccnc2)c1

Row | solubility kinetic [µg/mL] | Structure (SMILES)
70 | 35 (≈ 111 µM) | O=C(Nc1ccc(C(=O)N2CCCCC2)cc1)c1cccs1
71 | < 0.6 | COC(=O)c1cn(C(=O)c2ccc(F)cc2)c2ccccc12
72 | 53.8 (≈ 132 µM) | Cc1cccc(C(=O)NCC(=O)OCc2nc(N)nc(Nc3ccccc3C)n2)c1
73 | > 49.4 | COC(=O)c1cn(Cc2ccc(C(F)(F)F)cc2)cc(F)c1=O
74 | > 45.4 | Cc1[nH]c2ccccc2c1SCC(=O)NC1CCCCC1
75 | > 52.2 | Cc1cc(C)cc(N2C(N)=NC(N)=NC2c2ccccc2F)c1.Cl (stereo not drawn)
76 | < 0.4 | C=Cc1ccc(C(=O)NC2CCCN(Cc3ccccc3F)C2)cc1 (stereo not drawn)
77 | 5.7 (≈ 22.4 µM) | CCCOC(=O)Nc1cc(OC)ccc1[N+](=O)[O-]
78 | 44.2 (≈ 131 µM) | CNC(=O)c1cccc2cccc(Sc3ccccc3C(=O)O)c12
79 | 38.4 (≈ 113 µM) | CC(C)C(C(=O)Nc1ccccc1F)N1C(=O)c2ccccc2C1=O (stereo not drawn)
80 | 54.4 (≈ 140 µM) | COc1ccccc1C1(CCNC(C)c2cccs2)CCOC(C(C)C)C1 (stereo not drawn)
81 | > 50.6 | CC(=O)N1CCN(S(=O)(=O)c2ccc3c(c2)CCC(=O)N3)CC1
82 | 43.3 (≈ 128 µM) | CCOC(=O)C1(Cc2cccc(F)c2)CCN(CC(O)CO)CC1 (stereo not drawn)
83 | 20.9 (≈ 63.1 µM) | COc1ccc([N+](=O)[O-])cc1NC(=O)COC(=O)c1ccccn1
84 | > 40 | Cc1ccccc1NC(=O)N1CCc2ccccc2C1
85 | > 56.9 | COc1cc(CC(=O)OCC(=O)NC2CCCCCC2)cc(OC)c1OC
86 | > 37.1 | Cc1ccccc1CC(=O)N1CC(C)OC(C)C1 (stereo not drawn)
87 | 8.2 (≈ 21.2 µM) | O=C(NCC(=O)N1CC=C(c2ccccc2)CC1)c1ccc(OC(F)F)cc1
88 | 3.4 (≈ 6.52 µM) | COc1ccccc1CNC(=O)C(CCSC)NC(=O)c1cccc(S(=O)(=O)N2CCOCC2)c1 (stereo not drawn)
89 | 47.3 (≈ 132 µM) | O=C1CCCC2=C1C(c1ccc(O)c(O)c1)Nc1ccc3ccccc3c12 (stereo not drawn)
90 | 23.4 (≈ 62.7 µM) | COc1ccc(CNC(=O)CN2C(=O)NC3(CCCCCCC3)C2=O)cc1
91 | 5.3 (≈ 16.1 µM) | CNc1oc(-c2ccccc2)nc1S(=O)(=O)c1ccc(C)cc1
92 | 3.3 (≈ 10.4 µM) | O=S(=O)(Nc1ccc2ccccc2n1)c1ccccc1Cl

Row | solubility kinetic [µg/mL] | Structure (SMILES)
93 | 10.5 (≈ 36.8 µM) | Cc1csc(NC(=O)c2cc(=O)[nH]c3ccccc23)n1
94 | > 41.2 | O=C(CCC(=O)c1cccs1)NCc1cccnc1
95 | 48.7 (≈ 150 µM) | CC(C)(Oc1ccc(Cl)cc1)C(=O)N1CCC(C(N)=O)CC1
96 | > 49.7 | O=C(O)c1c2c(nc3ccccc13)/C(=C/c1ccc(O)cc1)CCC2
97 | 15.1 (≈ 39.4 µM) | O=C1C(Cl)=C(N2CCCCCC2)C(=O)N1c1ccc(Br)cc1
98 | 35.2 (≈ 123 µM) | COC(=O)c1scc(S(C)(=O)=O)c1-n1cccc1
99 | 40.7 (≈ 124 µM) | OCC1(Cc2ccccc2F)CCCN(CCc2ccccc2)C1 (stereo not drawn)
100 | 25.7 (≈ 73.3 µM) | CC(=O)O/N=C/c1c(NCc2ccccc2)nc2c(C)cccn2c1=O
101 | 1.8 (≈ 5.35 µM) | CC(=O)c1ccc(NC(=O)COC(=O)c2c[nH]c3ccccc23)cc1
102 | 2 (≈ 5.34 µM) | Cc1nc2ccc([N+](=O)[O-])cc2c(=O)n1Cc1ccccc1Br
103 | 51.6 | Clc1cccc(Cl)c1C[n+]1cccc2ccccc21.[Br-]
104 | 13.3 (≈ 50.1 µM) | CC(C)NC(=O)c1cccc2c1-c1ccccc1C2=O
105 | > 42.8 | Cc1ccc2[nH]c(C(=O)N3CCC(C(N)=O)CC3)cc2c1
106 | 40.9 (≈ 140 µM) | Cc1sc(NC(=O)/C=C/c2ccco2)c(C(=O)O)c1C
107 | > 34.5 | S=C(c1c[nH]c2ccccc12)N1CCCC1
108 | > 44.4 | O=C(NCc1ccccn1)Nc1cccc(Cl)c1Cl
109 | 37.7 (≈ 139 µM) | CC1CCCCN1C(=O)c1ccc(Br)o1 (stereo not drawn)
110 | 9.4 (≈ 37.6 µM) | Oc1ccc2ccccc2c1CNc1ccccn1
111 | > 43 | CCOC(=S)N/C(=N\S(C)(=O)=O)c1ccccc1
112 | 9 (≈ 36.2 µM) | CN(C)c1ccc(Nc2cc(Cl)ncn2)cc1
113 | > 53.1 | O=C(O)/C=C/C(=O)Nc1ccc(OC(F)(F)F)cc1Br
114 | 71.1 (≈ 149 µM) | CN(C(=O)CSc1nc2ccccc2c(=O)n1-c1ccccc1Cl)C1CCS(=O)(=O)C1 (stereo not drawn)

Row | Structure (SMILES) | solubility kinetic [µg/mL]
115 | COCC(C)NCc1cccc2ccccc12.O=C(O)C(=O)O (stereo not drawn) | > 47.9
116 | Cc1cccc(-n2c(=S)[nH]c3ccccc3c2=O)n1 | > 40.4
117 | c1ccc2c3c([nH]c2c1)C1(CCNCC1)NCC3 | 34.7 (≈ 144 µM)
118 | CN(C)C(=O)Oc1ccc2c(c1)O/C(=C\c1ccc(Cl)cc1)C2=O | 0.9 (≈ 2.62 µM)
